{"source": "patent US20200172486A1", "about": "“PYRIDONE COMPOUNDS AND AGRICULTURAL AND HORTICULTURAL FUNGICIDES CONTAINING THE SAME AS ACTIVE INGREDIENTS” (MITSUI CHEMICALS AGRO, INC., priority 2017, published 2020)", "key": {"[1]": {"test_system": "cabbage alternaria sooty spot fungi (Alternaia brassicicola)", "assay": "Test Example C: cabbage alternaria sooty spot, spray test on potted cabbage plants", "conditions": "in Brassica oleracea, read-out: control value", "excerpt": "Control value=100{1−(n/3)}\nTest plants (cabbage variety: Shikidori) were cultivated until the cotyledons extended after the sowing of seeds."}, "[2]": {"test_system": "cucumber anthracnose fungi (Colletotrichum orbiculare)", "assay": "Test Example H: cucumber anthracnose, spray test on potted cucumber plants", "conditions": "in Cucumis sativus, read-out: control value"}, "[3]": {"test_system": "gray mold fungi (Botrytis cinerea)", "assay": "Test Example B: tomato gray mold, spray test on potted tomato plants", "conditions": "in Solanum lycopersicum, read-out: control value", "excerpt": "Control value=100{1−(n/3)}\nTest plants (tomato variety: Oogata Fukuju) were cultivated until three to five first leaves (true leaves) appeared after the sowing of seeds."}}}
{"smiles": "CCn1c(-c2c(F)cccc2F)c(NC(=O)OC(C)(C)C)cc(Cl)c1=O", "note": "[Compound 1, tert-butyl (5-chloro-2-(2,6-difluorophenyl)-1-ethyl-6-oxo-1,6-dihydropyridin-3-yl)carbamate]", "values": [{"measurement": "pest or weed control at 250 ppm", "setting": "[1]", "value": "> 50", "unit": "%"}]}
{"smiles": "CCn1c(-c2c(F)cccc2F)c(N(C)C(=O)OC(C)(C)C)cc(Cl)c1=O", "note": "[Compound 2, tert-butyl (5-chloro-2-(2,6-difluorophenyl)-1-ethyl-6-oxo-1,6-dihydropyridin-3-yl)(methyl)carbamate]", "values": [{"measurement": "pest or weed control at 250 ppm", "setting": "[1]", "value": "> 50", "unit": "%"}]}
{"smiles": "CCn1c(-c2c(F)cccc2F)c(NC)cc(Cl)c1=O", "note": "[Compound 3, 3-chloro-6-(2,6-difluorophenyl)-1-ethyl-5-(methylamino)-pyridin-2(1H)-one]", "values": [{"measurement": "pest or weed control at 250 ppm", "setting": "[1]", "value": "> 50", "unit": "%"}, {"measurement": "pest or weed control at 250 ppm", "setting": "[2]", "value": "> 50", "unit": "%"}]}
{"smiles": "CCn1c(-c2c(F)cccc2F)c(N(C)C)cc(Cl)c1=O", "note": "[Compound 4, 3-chloro-6-(2,6-difluorophenyl)-5-(dimethylamino)-1-ethyl-pyridin-2(1H)-one]", "values": [{"measurement": "pest or weed control at 250 ppm", "setting": "[1]", "value": "> 50", "unit": "%"}, {"measurement": "pest or weed control at 250 ppm", "setting": "[3]", "value": "> 50", "unit": "%"}, {"measurement": "pest or weed control at 250 ppm", "setting": "[2]", "value": "> 50", "unit": "%"}]}
{"smiles": "CCN(C)c1cc(Cl)c(=O)n(CC)c1-c1c(F)cccc1F", "note": "[Compound 5, 3-chloro-6-(2,6-difluorophenyl)-1-ethyl-5-(ethyl(methyl)-amino)pyridin-2(1H)-one]", "values": [{"measurement": "pest or weed control at 250 ppm", "setting": "[1]", "value": "> 50", "unit": "%"}, {"measurement": "pest or weed control at 250 ppm", "setting": "[3]", "value": "> 50", "unit": "%"}, {"measurement": "pest or weed control at 250 ppm", "setting": "[2]", "value": "> 50", "unit": "%"}]}
{"smiles": "CCn1c(-c2c(F)cccc2F)c(N=CN2CCCC2)cc(Cl)c1=O", "note": "[Compound 8, 3-chloro-6-(2,6-difluorophenyl)-1-ethyl-5-((pyrrolidin-1-yl-methylene)amino)pyridin-2(1H)-one]", "values": [{"measurement": "pest or weed control at 250 ppm", "setting": "[1]", "value": "> 50", "unit": "%"}, {"measurement": "pest or weed control at 250 ppm", "setting": "[3]", "value": "> 50", "unit": "%"}, {"measurement": "pest or weed control at 250 ppm", "setting": "[2]", "value": "> 50", "unit": "%"}]}
{"smiles": "CCN(C(=O)OC(C)(C)C)c1cc(Cl)c(=O)n(CC)c1-c1ccc(F)cc1", "note": "[Compound 17, tert-butyl (5-chloro-1-ethyl-2-(4-fluorophenyl)-6-oxo-1,6-dihydropyridin-3-yl)(ethyl)carbamate]", "values": [{"measurement": "pest or weed control at 250 ppm", "setting": "[2]", "value": "> 50", "unit": "%"}]}
{"smiles": "CCNc1cc(Cl)c(=O)n(CC)c1-c1ccc(F)cc1", "note": "[Compound 20, 3-chloro-1-ethyl-5-(ethylamino)-6-(4-fluorophenyl)pyridin-2(1H)-one]", "values": [{"measurement": "pest or weed control at 250 ppm", "setting": "[2]", "value": "> 50", "unit": "%"}]}
{"smiles": "CCn1c(-c2ccc(F)cc2Cl)c(NC(=O)OC(C)(C)C)cc(Cl)c1=O", "note": "[Compound 27, tert-butyl (5-chloro-2-(2-chloro-4-fluorophenyl)-1-ethyl-6-oxo-1,6-dihydropyridin-3-yl)carbamate]", "values": [{"measurement": "pest or weed control at 250 ppm", "setting": "[3]", "value": "> 50", "unit": "%"}]}
{"smiles": "CCn1c(-c2ccc(F)cc2Cl)c(N)cc(Cl)c1=O", "note": "[Compound 32, 5-amino-3-chloro-6-(2-chloro-4-fluorophenyl)-1-ethylpyridin-2(1H)-one]", "values": [{"measurement": "pest or weed control at 250 ppm", "setting": "[2]", "value": "> 50", "unit": "%"}]}
{"smiles": "CCn1c(-c2ccc(F)cc2Cl)c(N2CCCCC2)cc(Cl)c1=O", "note": "[Compound 44, 3-chloro-6-(2-chloro-4-fluorophenyl)-1-ethyl-5-(piperidin-1-yl)pyridin-2(1H)-one]", "values": [{"measurement": "pest or weed control at 250 ppm", "setting": "[1]", "value": "> 50", "unit": "%"}, {"measurement": "pest or weed control at 250 ppm", "setting": "[3]", "value": "> 50", "unit": "%"}, {"measurement": "pest or weed control at 250 ppm", "setting": "[2]", "value": "> 50", "unit": "%"}]}
{"smiles": "CCn1c(-c2c(F)cccc2F)c(N)cc(Cl)c1=O", "note": "[Compound 59, 5-amino-3-chloro-6-(2,6-difluorophenyl)-1-ethylpyridin-2(1H)-one]", "values": [{"measurement": "pest or weed control at 250 ppm", "setting": "[2]", "value": "> 50", "unit": "%"}]}
{"smiles": "CCn1c(-c2c(F)cccc2F)c(Nc2ccccc2)cc(Cl)c1=O", "note": "[compound 317, 3-chloro-6-(2,6-difluorophenyl)-1-ethyl-5-(phenylamino)pyridin-2(1H)-one]", "values": [{"measurement": "pest or weed control at 250 ppm", "setting": "[1]", "value": "> 50", "unit": "%"}, {"measurement": "pest or weed control at 250 ppm", "setting": "[3]", "value": "> 50", "unit": "%"}, {"measurement": "pest or weed control at 250 ppm", "setting": "[2]", "value": "> 50", "unit": "%"}]}
{"smiles": "CCn1c(-c2ccc(F)cc2Cl)c(N2CCC(C)CC2)cc(Cl)c1=O", "note": "[compound 365, 3-chloro-6-(2-chloro-4-fluorophenyl)-1-ethyl-5-(4-methyl-piperidin-1-yl)pyridin-2(1H)-one]", "values": [{"measurement": "pest or weed control at 250 ppm", "setting": "[1]", "value": "> 50", "unit": "%"}, {"measurement": "pest or weed control at 250 ppm", "setting": "[3]", "value": "> 50", "unit": "%"}, {"measurement": "pest or weed control at 250 ppm", "setting": "[2]", "value": "> 50", "unit": "%"}]}
{"smiles": "CCn1c(-c2c(F)cccc2F)c(N2CCOCC2)cc(Cl)c1=O", "note": "[compound 426, 3-chloro-6-(2,6-difluorophenyl)-1-ethyl-5-morpholinopyridin-2(1H)-one]", "values": [{"measurement": "pest or weed control at 250 ppm", "setting": "[1]", "value": "> 50", "unit": "%"}, {"measurement": "pest or weed control at 250 ppm", "setting": "[3]", "value": "> 50", "unit": "%"}, {"measurement": "pest or weed control at 250 ppm", "setting": "[2]", "value": "> 50", "unit": "%"}]}
